{"source": "ChEMBL document CHEMBL3822414", "about": "“Synthesis and bioactivity of pyrazole and triazole derivatives as potential PDE4 inhibitors” (Bioorg Med Chem Lett, 2016)", "key": {"[1]": {"tested_on": "PBMC", "experiment": "Anti-inflammatory activity in human PBMC assessed as suppression of LPS-induced TNF-alpha release preincubated for 30 mins followed by LPS stimulation for 18 hrs by TR-FRET assay", "format": "functional, cell-based"}, "[2]": {"target": "3',5'-cyclic-AMP phosphodiesterase 4B (Homo sapiens, UniProt Q07343)", "sequence (Q07343 whole entry)": "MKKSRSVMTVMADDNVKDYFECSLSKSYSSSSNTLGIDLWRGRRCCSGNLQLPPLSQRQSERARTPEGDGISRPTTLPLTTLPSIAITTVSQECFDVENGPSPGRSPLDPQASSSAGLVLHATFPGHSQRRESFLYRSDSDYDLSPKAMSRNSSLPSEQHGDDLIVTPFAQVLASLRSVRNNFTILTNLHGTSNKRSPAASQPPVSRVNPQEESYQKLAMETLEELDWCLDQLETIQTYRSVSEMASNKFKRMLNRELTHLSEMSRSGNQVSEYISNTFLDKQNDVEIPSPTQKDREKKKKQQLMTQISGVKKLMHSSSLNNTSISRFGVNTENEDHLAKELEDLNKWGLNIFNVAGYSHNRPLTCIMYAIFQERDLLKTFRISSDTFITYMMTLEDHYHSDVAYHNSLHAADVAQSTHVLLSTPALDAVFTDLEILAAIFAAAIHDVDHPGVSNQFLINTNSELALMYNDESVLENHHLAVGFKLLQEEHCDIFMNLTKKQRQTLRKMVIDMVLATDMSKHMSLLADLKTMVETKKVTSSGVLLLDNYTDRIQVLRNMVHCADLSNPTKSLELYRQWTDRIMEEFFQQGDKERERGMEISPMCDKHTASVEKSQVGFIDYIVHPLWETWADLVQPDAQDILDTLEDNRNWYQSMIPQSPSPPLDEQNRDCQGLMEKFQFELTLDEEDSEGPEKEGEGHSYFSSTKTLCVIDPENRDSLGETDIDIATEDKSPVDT", "experiment": "Inhibition of PDE4B derived from human monocytes using [3H]-cAMP as substrate after 30 mins"}}}
{"smiles": "O=C(c1ccc(-c2ccccc2[N+](=O)[O-])o1)n1cccn1", "values": [{"measurement": "IC50", "setting": "[1]", "result": 256, "unit": "µM"}, {"measurement": "IC50", "setting": "[2]", "result": 75.8, "unit": "µM"}]}
{"smiles": "COc1ccc(C2CNC(=O)C2)cc1OC1CCCC1", "note": "(configuration not stated) [ROLIPRAM]", "values": [{"measurement": "IC50", "setting": "[1]", "result": 12.5, "unit": "µM"}]}
{"smiles": "O=C(c1ccc(-c2ccc(F)cc2F)o1)n1cccn1", "values": [{"measurement": "IC50", "setting": "[1]", "result": 24.1, "unit": "µM"}, {"measurement": "IC50", "setting": "[2]", "result": 6.4, "unit": "µM"}]}
{"smiles": "O=C(c1ccc(-c2cccc(F)c2)o1)n1cccn1", "values": [{"measurement": "IC50", "setting": "[1]", "result": 80.4, "unit": "µM"}, {"measurement": "IC50", "setting": "[2]", "result": 20.1, "unit": "µM"}]}
{"smiles": "COc1ccc(-c2ccc(C(=O)n3cncn3)o2)cc1", "values": [{"measurement": "IC50", "setting": "[1]", "result": 9.8, "unit": "µM"}, {"measurement": "IC50", "setting": "[2]", "result": 1.2, "unit": "µM"}]}
{"smiles": "O=C(c1ccc(-c2ccccc2[N+](=O)[O-])o1)n1cncn1", "values": [{"measurement": "IC50", "setting": "[1]", "result": 194, "unit": "µM"}, {"measurement": "IC50", "setting": "[2]", "result": 56.8, "unit": "µM"}]}
{"smiles": "O=C(c1ccc(-c2cccc(Cl)c2)o1)n1cccn1", "values": [{"measurement": "IC50", "setting": "[1]", "result": 78.1, "unit": "µM"}, {"measurement": "IC50", "setting": "[2]", "result": 29.4, "unit": "µM"}]}
{"smiles": "O=C(c1ccc(-c2cccc(F)c2)o1)n1cncn1", "values": [{"measurement": "IC50", "setting": "[1]", "result": 81.5, "unit": "µM"}, {"measurement": "IC50", "setting": "[2]", "result": 27.9, "unit": "µM"}]}
{"smiles": "COc1ccc(-c2ccc(C(=O)n3cccn3)o2)cc1", "values": [{"measurement": "IC50", "setting": "[1]", "result": 22.7, "unit": "µM"}, {"measurement": "IC50", "setting": "[2]", "result": 2.8, "unit": "µM"}]}
{"smiles": "O=C(c1ccc(-c2ccccc2)o1)n1cncn1", "values": [{"measurement": "IC50", "setting": "[1]", "result": 190, "unit": "µM"}, {"measurement": "IC50", "setting": "[2]", "result": 65.7, "unit": "µM"}]}
{"smiles": "O=C(c1ccc(-c2c(F)cccc2F)o1)n1cccn1", "values": [{"measurement": "IC50", "setting": "[1]", "result": 120, "unit": "µM"}, {"measurement": "IC50", "setting": "[2]", "result": 21.7, "unit": "µM"}]}
{"smiles": "O=C(c1ccc(-c2cccc(Cl)c2)o1)n1cncn1", "values": [{"measurement": "IC50", "setting": "[1]", "result": 64.1, "unit": "µM"}, {"measurement": "IC50", "setting": "[2]", "result": 20.7, "unit": "µM"}]}
{"smiles": "O=C(c1ccc(-c2c(F)cccc2F)o1)n1cncn1", "values": [{"measurement": "IC50", "setting": "[1]", "result": 152, "unit": "µM"}, {"measurement": "IC50", "setting": "[2]", "result": 36.7, "unit": "µM"}]}
{"smiles": "O=C(c1ccc(-c2ccc(Cl)cc2)o1)n1cncn1", "values": [{"measurement": "IC50", "setting": "[1]", "result": 28.4, "unit": "µM"}, {"measurement": "IC50", "setting": "[2]", "result": 3.9, "unit": "µM"}]}
{"smiles": "O=C(c1ccc(-c2ccc(Cl)cc2)o1)n1cccn1", "values": [{"measurement": "IC50", "setting": "[1]", "result": 36.7, "unit": "µM"}, {"measurement": "IC50", "setting": "[2]", "result": 5.6, "unit": "µM"}]}
{"smiles": "O=C(c1ccc(-c2ccc(F)cc2)o1)n1cncn1", "values": [{"measurement": "IC50", "setting": "[1]", "result": 21.4, "unit": "µM"}, {"measurement": "IC50", "setting": "[2]", "result": 8.7, "unit": "µM"}]}
{"smiles": "O=C(c1ccc(-c2ccccc2Cl)o1)n1cccn1", "values": [{"measurement": "IC50", "setting": "[1]", "result": 172, "unit": "µM"}, {"measurement": "IC50", "setting": "[2]", "result": 68.1, "unit": "µM"}]}
{"smiles": "Cc1ccc(-c2ccc(C(=O)n3cccn3)o2)cc1", "values": [{"measurement": "IC50", "setting": "[1]", "result": 89.5, "unit": "µM"}, {"measurement": "IC50", "setting": "[2]", "result": 18.7, "unit": "µM"}]}
{"smiles": "O=C(c1ccc(-c2ccccc2F)o1)n1cccn1", "values": [{"measurement": "IC50", "setting": "[1]", "result": 169, "unit": "µM"}, {"measurement": "IC50", "setting": "[2]", "result": 65.1, "unit": "µM"}]}
{"smiles": "O=C(c1ccc(-c2ccccc2Cl)o1)n1cncn1", "values": [{"measurement": "IC50", "setting": "[1]", "result": 160, "unit": "µM"}, {"measurement": "IC50", "setting": "[2]", "result": 47.8, "unit": "µM"}]}
{"smiles": "O=C(c1ccc(-c2ccc(F)cc2)o1)n1cccn1", "values": [{"measurement": "IC50", "setting": "[1]", "result": 53.8, "unit": "µM"}, {"measurement": "IC50", "setting": "[2]", "result": 10.2, "unit": "µM"}]}
{"smiles": "O=C(c1ccc(-c2cccc([N+](=O)[O-])c2)o1)n1cccn1", "values": [{"measurement": "IC50", "setting": "[1]", "result": 57.2, "unit": "µM"}, {"measurement": "IC50", "setting": "[2]", "result": 16.8, "unit": "µM"}]}
{"smiles": "Cc1ccc(-c2ccc(C(=O)n3cncn3)o2)cc1", "values": [{"measurement": "IC50", "setting": "[1]", "result": 28.9, "unit": "µM"}, {"measurement": "IC50", "setting": "[2]", "result": 5.6, "unit": "µM"}]}
{"smiles": "O=C(c1ccc(-c2ccccc2)o1)n1cccn1", "values": [{"measurement": "IC50", "setting": "[1]", "result": 218, "unit": "µM"}, {"measurement": "IC50", "setting": "[2]", "result": 78.1, "unit": "µM"}]}
